Laboratory results: patent US20240156902A1, “METHODS OF TREATING NEURODEGENERATIVE DISORDERS WITH INTRANASAL NF-KAPPAB ESSENTIAL MODIFIER (NEMO)-BINDING DOMAIN (NBD) PEPTIDE” (Rush University Medical Center, priority 2021, published 2024)
Read-outs that look alike come from different tables or passages of the source.

Experiments:
NF-κB [1] = test: NF-κB activation in nigra of PFF-seeded A53T mice (acetylated p65 in microglia); assay type: in vivo, mouse; details: intranasal 0.1 mg/kg/d for 1 month
Description: (§1) Following 2 months of surgery, animals received wild type NBD (wtNBD) at a dose of 0.1 mg/kg body weight/day intranasally. After 1 month of wtNBD treatment, behavioral analyses were performed followed by immunohistochemistry and different biochemical experiments.
FIG. 2A and FIG. 2B show the results following intranasal administration of wtNBD peptide inhibiting NF-κB activation in the nigra of PFF-seeded mouse model of Lewy body diseases. A53T transgenic mice were seeded with PFF bilaterally and following 2 months of brain surgery, animals were given intranasal administration of 0.1 mg/kg wtNBD peptide daily. Activation of NF-κB in nigra was monitored by evaluating the level of acetylated (K310) p65 in Ibal+ve microglia in different groups of mice. Marked up-regulation of microglial acetylated p65 level in the SN of PFF-seeded mice was found compared to the PBS-injected mice (FIG. 2A and FIG. 2B). […] Statistical significance was determined by one-way ANOVA followed by Tukey's multiple comparison tests. *p<0.05, ***p<0.001 indicate significance compared to respective groups. Values are given as mean±SEM (n=4 per group). […]
(§2) Following 1 month of wtNBD administration, NF-κB activation in substantia nigra (SN) and spreading of α-syn in both SN and motor cortex were monitored. […]

α-syn = α-syn spreading from striatum to nigra and motor cortex in PFF-seeded A53T mice (pSyn129 immunostaining, α-syn immunoblot); assay type: in vivo, mouse; details: intranasal 0.1 mg/kg/d for 1 month
Description: as §1
Propagation of α-syn in PFF-seeded A53T mouse brain was monitored in SN by pSyn129 immunostaining and relative intensity measurement (FIG. 3A, FIG. 3B) and also by immunoblotting total α-syn in Triton X-100 soluble and insoluble fractions (FIG. 3C, FIG. 3D). The ratio of α-syn to actin is shown in the diagrams (FIG. 3E, FIG. 3F). Level of pSyn129 in motor cortex was assessed by immunohistochemistry (FIG. 3G, FIG. 3H). Two sections from each brain were used for immunostaining and pSyn129 specific intensity was analysed by Fiji. One-way ANOVA followed by Tukey's multiple comparison tests was conducted for statistical analyses. **p<0.01, ***p<0.001 indicate significance compared to respective groups. Values are given as mean±SEM (n=4 animals per group).
(§3) The wtNBD peptide (SEQ ID NO: 4) was solubilized in normal saline in such a way so that each mouse receives 0.1 mg/kg of body weight NBD peptide in 2.5 μl of saline. […]
as §2

dopaminergic neurons = test: Parkinsonian pathology in PFF-seeded A53T mice (TH immunohistochemistry, TH immunoblot, striatal neurotransmitters); assay type: in vivo, mouse; details: intranasal 0.1 mg/kg/d for 1 month
Description: (§4) FIG. 4A-L depicts the results following intranasal administration of wtNBD peptide reducing Parkinsonian pathology in PFF-seeded mouse model of Lewy body diseases. PFF-seeded A53T animals were given intranasal administration of 0.1 mg/kg wtNBD peptide daily for one month Parkinsonian pathology was evaluated by TH immunohistochemistry of nigral sections (FIG. 4A), immunoblotting of total TH level in SN (FIG. 4B and FIG. 4C), assessing striatal level of dopamine (DA), and its metabolites 3,4-dihydroxyphenyl acetate (DOPAC), homovanillic acid (HVA) (FIG. 4D-F). Behavioral analyses of animals were performed by open field test (FIG. 4G), where movement parameters such as distance (FIG. 4H), velocity (FIG. 4I), cumulative duration (FIG. 4J) and rearings (FIG. 4K) were recorded. Feet movement was analysed by rotarod test (FIG. 4L). Statistical significance was determined by one-way ANOVA followed by Tukey's multiple comparison tests. *p<0.05, **p<0.01, ***p<0.001 indicate significance compared to respective groups. Values are given as mean±SEM (n=4 per group).
The wtNBD peptide (SEQ ID NO: 4) was solubilized in normal saline in such a way so that each mouse receives 0.1 mg/kg of body weight NBD peptide in 2.5 μl of saline. Then 2.5 μl of wtNBD solution was administered in mice through each nostril every day for a total of 30 days. Mice were hold in supine condition while administering wtNBD solution. See Rangasamy et al. “Selective disruption of TLR2-MyD88 interaction inhibits inflammation and attenuates Alzheimer's pathology” (2018) J Clin Invest 128, 4297-4312. Intranasal treatment was started for preformed α-syn fibril (PFF) or PBS injected A53T animals at the age of 5 months (2 months following the brain surgery) for the next 30 days. Aged A53T animals (8 months old) were also treated with wtNBD peptides for 1 month followed by behavioural tests and other experiments at the age of 9 months.
Next, the effect of intranasal wtNBD on PFF-induced Parkinsonian pathologies was monitored. […] Locomotor deficit was also evident by rotarod analysis (FIG. 4L).

[2] = system: PFF-seeded A53T transgenic mice; test: Locomotor activities of PFF-seeded A53T mice (open field test, rotarod); assay type: in vivo, mouse; details: intranasal 0.1 mg/kg/d for 1 month
Description: as §4, §3
Next, the effect of intranasal wtNBD on PFF-induced Parkinsonian pathologies was monitored. […]

[3] = in vivo; cited from earlier work
NF-κB [4] = details: cultured brain cells; cited from earlier work
NF-κB [5] = details: in vivo in the brain; cited from earlier work

Substance	microglial acetylated (K310) p65 level in the SN (NF-κB [1])	level of pSyn129 in nigral neurons (relative optical density in SN) (α-syn; PFF-seeded A53T mice)	accumulation of pSyn129 in cortical neurons (motor cortex) (α-syn; compared to saline-treated PFF-seeded mice)	nigral TH neurons (dopaminergic neurons)	nigral TH protein level (dopaminergic neurons)	striatal DA level (dopaminergic neurons)	movement deficits (open field distance, velocity, cumulative duration, rearing; rotarod) [2]	entry into the brain [3]	block of the function of NF-κB (NF-κB [4])	block of the function of NF-κB (NF-κB [5])
DRQIKIWFQNRRMKWKKLDWSWL (DRQIKWFQNRRMKWKKLDWSWL) [wtNBD]	significantly decreased	drastically reduced	reduced accumulation	significantly protected	significantly protected	significantly protected	significantly inhibited	enters into the brain	–	–
LDWSWL [truncated hexapeptide of the wtNBD]	–	–	–	–	–	–	–	–	sufficient to block	sufficient to block
